In assay [1] the test system is 2.2.15 cells. Nature of the assay: Toxicity in 2.2.15 cells, neutral red dye uptake. The class given is cell-based, human. To be noted: Table II, read-out: HBV IC50. The method, then:
Cells of 2.2.15 were grown to confluence in 96-well flat-bottomed tissue culture plates and treated with compounds (in 0.2 mL culture medium/well) as described above. Four concentrations of each compound were assayed, each in triplicate cultures, in 3- to 10-fold steps. Untreated control cultures were maintained on each 96-well plate. On each 96-well plate, wells containing no cells were used to correct for light scattering.

The subject of assay [2] is Raji or Daudi cells. Nature of the assay: Toxicity run with the EBV assay. The class given is cell-based, human. The settings on record: Table II; for IC50: Homo sapiens. An excerpt:
IC50 (50% inhibitory concentration) is the concentration required to inhibit cell proliferation by 50%

Assay [3] has as its system HBV. Nature of the assay: HBV replication in cultures of 2.2.15 cells, extracellular HBV virion DNA (primary assay). To be noted: for EC50: read-out: HBV EC50.
Description: Both intracellular and extracellular HBV DNA are analyzed in order to (i) allow for verification of compound efficacy and (ii) provide possible data on the target site in the HBV replication pathway for the compound from examination of the pattern of viral replicative forms. The culture medium is changed daily during the treatment period to (i) prevent the buildup of potentially toxic metabolites derived from test compounds and (ii) provide an analysis of HBV virion production during discrete 24-hour intervals which enables a quantitative comparison of any effect on virion production.
The analysis of HBV DNA is performed using blot hybridization techniques (Southern and slot blot) and [^32P]-labeled HBV-specific probes. HBV DNA levels are measured by comparison to known amounts of HBV DNA standards applied to every nitrocellulose membrane (gel or slot blot). An AMBIS beta scanner, which measures the radioactive decay of the hybridized probes directly from the nitrocellulose membranes, is used for the quantitative analysis. Standard curves, generated by multiple analyses, are used to correlate CPM measurements made by the beta scanner with relative levels of target HBV DNA. The levels of HBV virion DNA released into the culture medium are analyzed by a slot blot hybridization procedure.
The subject of assay [4] is EBV. Nature of the assay: EBV assay: superinfection of Raji or Daudi cells with P3HR-1, immunofluorescence for EA and VCA. The class given is cell-based, Epstein-Barr virus. To be noted: Table II; for EC50: human gammaherpesvirus 4. An excerpt: There are two prototypes of infectious EBV. One is exemplified by the virus derived from supernatant fluids of the P3HR-1cell line. This cell line produces nontransforming virus that causes the production of early antigen (EA) after primary infection or superinfection of B cell lines. The other prototype is exemplified by the B-95-8 virus. This virus immortalized cord blood lymphocytes and induced tumors in marmosets.
The virus used in our assays is P3HR-1.
Ramos is an exceptional B cell line derived from Burkitt's lymphoma tumor but containing no detectable EBV genome copies and is EBNA negative. Ramos/AW was obtained by in vitro infection of Ramos with the P3HR-1 virus and contains one resident EBV genome copy/cell. Raji is a Burkitt's lymphoma cell line containing 60 EBV genomes/cell, and will be the primary cell used for screening antiviral activity against EBV EA expression. Daudi is a low level producer that contains 152 EBV genome copies/cell. It spontaneously expresses EBV EA in 0.25%-0.5% of the cells. It will be used in follow-up studies to confirm activity. These cell lines respond to superinfection by EBV by expressing EA(D), EA(R), and VCA. All cell lines are maintained in RPMI-1640 medium supplemented by 10% FCS, L-glutamine and 100 μg/mL gentamicin. The cultures are fed twice weekly and the cell concentration adjusted to 3×10^5/mL. The cells are kept at 37° C. in a humidified atmosphere with 5% CO2.
Cells are infected with the P3HR-1 strain of EBV and the drugs to be tested are added after adsorption (45 minutes at 37° C.) and washing of the cell cultures. The cultures are incubated for two days in complete medium to allow viral gene expression. Following the 48 hr incubation period, the number of cells of each sample are counted and smears made. Monoclonal antibodies to the different EA components and VCA are then added to the cells incubated and washed. This is followed by a fluorescein conjugated rabbit anti-mouse Ig antibody; and the number of fluorescence positive cells in the smears are counted. The total number of cells in the cultures positive for EA or VCA are then calculated and compared.

The test system of assay [5] is human foreskin fibroblast cells. Kind of assay: Toxicity run with the HCMV assay, human foreskin fibroblast cells. The class given is cell-based. The settings on record: Table II; for IC50: Homo sapiens, Fibroblast. The method, then:
(§1) [table] […] The media from the wells is then aspirated and 2 mL of each drug concentration is then added to each well. The cells are then incubated in a CO2 incubator at 37° C. for 72 h. At the end of this time, the media-drug solution is removed and the cells washed. […] The cell-media mixture is then pipetted up and down vigorously to break up the cell suspension, and 0.2 mL of the mixture is added to 9.8 mL of Isoton III and counted using a Coulter Counter. Each sample is counted three times with three replicate wells per sample. The procedure for plating cells and adding drug is the same as for the MTT Assay. After drug addition, the plates are incubated for seven days in a CO2 incubator at 37° C. […] This is incubated in the CO2 incubator for one hour. The dye is aspirated and the cells are washed using a Nunc Plate Washer. […] The plates are rotated for 15 minutes and the optical densities are read at 550 nm on a plate reader.

The test system of assay [6] is HCMV. Nature of the assay: HCMV semi-automated CPE-inhibition assay in human foreskin fibroblast cells. To be noted: Table II; for EC50: Human betaherpesvirus 5, Fibroblast. The class given is cell-based, human cytomegalovirus.
Assay [7] relates to HIV-1. To be noted: for EC50 / Maximum Protection (%): CEM-SS MTT assay; for protecting cells against HIV infection: text summary of Table I.
Assay [8] relates to CEM-SS cells. Kind of assay: CEM-SS MTT assay, cytotoxicity (Table I). The class given is cell-based, human.
Assay [9] has as its system HCMV isolates Towne, AD169, E. Mann, Coffman, C9208. Kind of assay: Anti-CMV plaque reduction assay against various laboratory and clinical isolates (Example 40). The class given is cell-based, human cytomegalovirus. The method, then: On the date of assay, the drug is made up at twice the desired concentration in 2x MEM and then serially diluted 1:5 in 2x MEM using six concentrations of drug. The initial starting concentration is usually 200 gg/mL down to 0.06 μg/mL. […] The media is then aspirated from the wells and 0.2 mL of virus is added to each well in duplicate with 0.2 mL of media being added to drug toxicity wells. The plates are then incubated for one hour with shaking every fifteen minutes. […] This will give final drug concentrations beginning with 100 μg/mL and ending with 0.03 μg/mL and a final agarose overlay concentration of 0.5%. The drug agarose mixture is applied to each well in 2 mL volume and the plates then incubated for three days, after which the cells were stained with a 1.5% solution of neutral red. At the end of 4-6hr incubation period, the stain is aspirated, and plaques counted using a stereomicroscope at lOx magnification. The procedure again is nearly the same as for HSV with a few minor changes. […] The assay is incubated for 14 days with the additional 1 mL overlays being applied on days four and eight. The procedure for the liquid overlay plaque assay is similar to that using the agarose overlay. The procedure for adding the virus is the same as for the regular plaque assay. The drugs are made up in a concentration to be used in MEM with 2% FBS. The drugs are not made up at 2x concentration as in the previous assays but are made up at the desired concentration. For HSV-1 and HSV-2 assays, an antibody preparation obtained from Baxter Health Care Corporation is diluted 1:500 and added to the media that the drug is diluted in. For CMV and VZV, no antibody in the overlay is utilized. For the CMV assay, additional medium without new drug is added on day five and allowed to incubate for a total of 10 days. For VZV, additional medium is added on day five and incubated for a total of 10 days. At the end of the incubation period for all of the assays, 2 mL of 1:10 dilution of stock neutral is added to each well incubated for six hours. The liquid is then aspirated off and plaques enumerated using a stereomicroscope. Five calanolide analogues, prepared as described above, were further evaluated for their anti-HCMV activity in plaque reduction assay against various laboratory and clinical isolates (Towne, AD 169, E. Mann, Coffinan, and […]).

Assay [10] relates to VZV. Kind of assay: VZV plaque reduction assay in human foreskin fibroblast cells. The settings on record: Table II. The class given is cell-based, varicella zoster virus. The protocol: Two days prior to use, HFF cells are plated into six-well plates and incubated at 37° C. with 5% CO2 and 90% humidity. On the date of assay, the drug is made up at twice the desired concentration in 2x MEM and then serially diluted 1:5 in 2x MEM using six concentrations of drug. The initial starting concentration is usually 200 gg/mL down to 0.06 μg/mL. The virus to be used is diluted in MEM containing 10% FBS to a desired concentration which will give 20-30 plaques per well. The media is then aspirated from the wells and 0.2 mL of virus is added to each well in duplicate with 0.2 mL of media being added to drug toxicity wells. The plates are then incubated for one hour with shaking every fifteen minutes. After the incubation period, an equal amount of 1% agarose was added to an equal volume of each drug dilution. This will give final drug concentrations beginning with 100 μg/mL and ending with 0.03 μg/mL and a final agarose overlay concentration of 0.5%. The drug agarose mixture is applied to each well in 2 mL volume and the plates then incubated for three days, after which the cells were stained with a 1.5% solution of neutral red. At the end of 4-6hr incubation period, the stain is aspirated, and plaques counted using a stereomicroscope at lOx magnification.
The procedure is essentially the same as for the HSV plaque assay described above with two exceptions:
1. After addition of the drug, the plates are incubated for ten days.
2. On days three and six, an additional 1 mL overlay with equal amounts of 2x MEM and 1% agarose are added.

The test system of assay [11] is human foreskin fibroblast cells. Kind of assay: Toxicity run with the VZV assay, human foreskin fibroblast cells. The class given is cell-based. To be noted: Table II. The protocol: as §1

The structures appear in SMILES notation. In brackets after ≈: the same amount, converted by molar mass. Read-outs that look alike come from different tables or passages of the source.

Turning to `CCCc1cc(=O)oc2c3c(c4c(c12)OC(C)(C)C=C4)O[C@H](C)[C@H](C)C3=O` [(+)-7a], the results for the IC50 in assay [1] (Homo sapiens), in assay [2] and in assay [5] were 382 µM, 11.9 µg/mL (≈ 32.3 µM) and 11.6 µg/mL (≈ 31.5 µM), respectively. Further, the EC50 is 2.5 µM in [3] (Hepatitis B virus), over 4 µg/mL in [4] and over 4 µg/mL in [6]. Besides, in assay [3] (Hepatitis B virus, read-out: HBV EC90), the 90% effect concentration (EC90) was determined as 11 µM.
As for `CCCc1cc(=O)oc2c3c(c4c(c12)OC(C)(C)C=C4)OC(C)C(C)C3=O` (racemic) [(±)-7, 10,11-trans-dihydro-4-propyl-6,6,10,11-tetramethyl-2H,6H,12H-benzo[1,2-b:3,4-b′:5,6-b″]-tripyran-2,12-dione], the EC50 in assay [7] stood at 1.18 µM; in [9] (isolate AD169) it was 3.16 µM; in assay [9] (isolate C9208), 7.16 µM; in assay [9] (isolate Coffman), 3.34 µM; in assay [9] (isolate E. Mann), 3.16 µM; in [9] (isolate Towne) it was 3.34 µM. Moreover, the “Maximum Protection (%)” value in assay [7] amounted to 90%. The “protecting cells against HIV infection” value in assay [7] is recorded as “highly efficacious”. Also, the IC50 in assay [8] came out at 19.1 µM.
Take `CCCc1cc(=O)oc2c3c(c4c(c12)OC(C)(C)C=C4)OC(C)C(C)C3=O` (single isomer, unassigned; (-)) [(−)-7]: in [1], the IC50 turned out to be 327 µM. Moreover, the “EBV IC50” value in assay [2] stood at 23.7 µg/mL. In addition, the concentration for a half-maximal effect (EC50) in assay [3] (Table II) is over 10 µM. In [4], the “EBV EC50” value was over 20 µg/mL. Further, in assay [5], the “HCMV IC50” value came out at 23.7 µg/mL. Besides, the “HCMV EC50” value in [6] was over 20 µg/mL.
Regarding `CCCc1cc(=O)oc2c3c(c4c(c12)OC(C)(C)C=C4)OC(C)C(C)C3=O` (single isomer, unassigned; (-)) [(−)-7a], in assay [1], the concentration for half-maximal inhibition (IC50) was 86 µM. Also, the EC50 in assay [3] (Table II) was over 10 µM. Besides, the “HCMV IC50” value in assay [5] is 11.9 µg/mL. The “HCMV EC50” value in assay [6] was over 4.0 µg/mL.
`CCCc1cc(=O)oc2c(C(=O)[C@H](C)[C@@H](C)OC(C)=O)c(O)c3c(c12)OC(C)(C)C=C3` [(+)-10, 6,6Dimethyl-9-hydroxy-10-[2(R)-methyl-3(R)-acetoxybutyro]-4-propyl-2H,6H-benzo-[1,2-b:3,4-b′]dipyran-2-one]: in assay [7], the EC50 worked out at 0.89 µM, the “Maximum Protection (%)” value is 88% and the “protecting cells against HIV infection” value is given as “highly efficacious”. Half-maximal inhibition in assay [8] (IC50) was put at 9.27 µM.
On the same counts, the results for `CCCc1cc(=O)oc2c3c(c4c(c12)OC(C)(C)C=C4)OC(CC)C(C)C3O` (racemic) [(±)-16f, (±)-10,11-qrans-11,12-trans-10,11-dihydro-10-ethyl-12-hydroxy4-propyl-6,6,11-trimethyl-2H,6H,12H-benzo [1,2-b:3,4-b′:5,6-b″]tripyran-2-one] are 1.97 µM, 86%, “highly efficacious” and 17.7 µM.
With `CCCc1cc(=O)oc2c3c(c4c(c12)OC(C)(C)C=C4)OC(C)(C)C(C)C3O` (racemic) [(±)-16d, (±)-11,12-trans-10,11-dihydro-12-hydroxy-6,6,10,10,11-pentamethyl-4-propyl-2H,6H,12H-benzo [1,2-b:3,4-b′:5,6-b″]tripyran-2-one], in assay [7], the midpoint of the response, the EC50, lay at 5.66 µM; the “Maximum Protection (%)” value stood at 88%; the “protecting cells against HIV infection” value was “highly efficacious”. For the same compound, half-maximal inhibition in [8] (IC50) required 21 µM.
In the case of `CCCc1cc(=O)oc2c1c1c(c3oc(C)c(C)c(=O)c32)C=CC(C)(C)O1` [Compound 5, 6,6,10,11-tetramethyl-4-propyl-2H,6H,12H-benzo[1,2-b:3,4-b′:5,6-b″]tripyran-2,12-dione], the IC50 in [1] (Homo sapiens) is 2080 µM; in assay [2], over 50 µg/mL; in assay [11] (Homo sapiens, Fibroblast), 52.2 µg/mL (≈ 142 µM); in assay [5], over 100 µg/mL. For the same compound, the EC50 in [3] (Hepatitis B virus) is over 10 µM; in assay [4] it was over 50 µg/mL; in assay [10] (Human alphaherpesvirus 3, Fibroblast), over 20 µg/mL; in assay [6] it was over 100 µg/mL.
As to `CCCc1cc(=O)oc2c3c(c4c(c12)OC(C)(C)C=C4)OC(C(C)C)C(C)C3=O` (racemic) [(+)-15e], the half-inhibitory concentration (IC50) in [1] worked out at 86 µM. Further, the “EBV IC50” value in [2] was over 50 µg/mL. The EC50 in assay [3] (Table II) was over 10 µM. The “EBV EC50” value in assay [4] is over 50 µg/mL. In addition, in assay [10], the “VZV EC50” value was over 100 µg/mL. Besides, the “VZV IC50” value in [11] is over 100 µg/mL. Moreover, the “HCMV IC50” value in assay [5] was found to be 75.3 µg/mL. For the same compound, the “HCMV EC50” value in [6] was over 20 µg/mL.

(Values after patent US20020013478A1, “Calanolide analogues and methods of their use” (Sarawak Medichem Pharmaceuticals,Inc., priority 1994, published 2002).)
